From paper PMC3880967, “Isolation of a novel alkaline-stable lipase from a metagenomic library and its specific application for milkfat flavor production” (Microbial Cell Factories, 2014) come the findings set out here.

By Km is commonly meant the concentration of substrate that gives half-maximal velocity.

T1 sequence (D7NJ22 27-357 limits assumed): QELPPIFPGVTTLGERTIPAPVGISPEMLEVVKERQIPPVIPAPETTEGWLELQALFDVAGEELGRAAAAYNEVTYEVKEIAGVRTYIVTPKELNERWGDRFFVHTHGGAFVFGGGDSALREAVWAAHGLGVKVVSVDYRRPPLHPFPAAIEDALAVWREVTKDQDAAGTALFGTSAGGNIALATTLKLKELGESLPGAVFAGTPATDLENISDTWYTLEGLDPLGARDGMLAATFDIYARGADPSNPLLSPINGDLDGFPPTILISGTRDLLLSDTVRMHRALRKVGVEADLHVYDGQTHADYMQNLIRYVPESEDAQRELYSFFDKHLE

The test addresses T1, Est_p6 (uncultured bacterium, UniProt D7NJ22).
T1 construct: predicted signal peptide (residues 1-26) removed, from residue 27 of 357; C-terminal 6xHis tag kept (pET-28a, NcoI/HindIII); E. coli BL21(DE3); Ni-NTA; 36 kDa by SDS-PAGE
Kind of test: spectrophotometric pNP release at […] nm, Lineweaver-Burk. The note with it: 50 mM Tris-HCl pH 8.60, 50°C, 4% ethanol. Format: biochemical.
In the case of `CCCCCCCCCCCC(=O)Oc1ccc([N+](=O)[O-])cc1` [C12, pNP laurate], the Km was found to be 149 µM. Consider `CC(=O)Oc1ccc([N+](=O)[O-])cc1` [C2, pNP acetate], for which the Km was 2640 µM. For the molecule `CCCCCCCCCC(=O)Oc1ccc([N+](=O)[O-])cc1` [C10, pNP caprate], the Km was 1280 µM. For `CCCC(=O)Oc1ccc([N+](=O)[O-])cc1` [C4, pNP butyrate], the Km is 1150 µM. `CCCCCCCC(=O)Oc1ccc([N+](=O)[O-])cc1` [C8, pNP caprylate]: the Km came to 322 µM.
